25 compounds from patent US20250101041A1, “POSITIVE ALLOSTERIC MODULATORS OF THE MUSCARINIC ACETYLCHOLINE RECEPTOR M4” (Vanderbilt University, priority 2022, published 2025) can be followed below.

For the assay, the target named is T1, human mAChR M4 (Homo sapiens, UniProt P08173).
T1 construct: expressed in transfected cells; host or cells: CHO-K1 (American Type Culture Collection), stably expressing hM4 and Gqi5
T1 sequence (P08173 1-479): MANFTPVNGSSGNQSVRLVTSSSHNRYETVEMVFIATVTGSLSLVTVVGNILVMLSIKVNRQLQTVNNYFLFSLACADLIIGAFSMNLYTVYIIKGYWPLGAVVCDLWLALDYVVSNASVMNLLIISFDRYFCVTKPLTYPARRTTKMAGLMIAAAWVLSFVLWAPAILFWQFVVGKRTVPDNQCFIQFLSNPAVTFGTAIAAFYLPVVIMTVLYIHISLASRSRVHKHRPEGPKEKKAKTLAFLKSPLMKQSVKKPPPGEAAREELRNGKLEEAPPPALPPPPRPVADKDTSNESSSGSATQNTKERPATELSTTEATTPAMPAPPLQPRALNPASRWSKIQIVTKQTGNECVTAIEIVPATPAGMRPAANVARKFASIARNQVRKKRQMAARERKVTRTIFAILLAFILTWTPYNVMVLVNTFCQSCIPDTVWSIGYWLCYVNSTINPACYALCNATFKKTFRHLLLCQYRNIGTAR
The assay is described as follows: mAChR M4 cell-based functional assay: calcium mobilization (Fluo-4, FDSS), potentiation of EC20 acetylcholine response in hM4-Gqi5 CHO-K1 cells. The following applies: human M4; for Emax at 30 µM: CHO-K1, % ACh maximum at 30 μM; for EC50: potentiation of EC20 acetylcholine response, calcium mobilization. An outline of the steps:
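Readout is the fluorescence-ratio rise at 1 Hz on FDSS, with PAM activity taken as concentration-dependent enhancement of the EC20 acetylcholine response, fitted four-parameter for EC50/Emax. hM4-Gqi5 CHO-K1 cells carried Fluo-4 AM dye; test compounds (11 points, 1:3) preceded EC20 acetylcholine additions at 144 s and 230 s.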

SMILES strings stand for the structures.

Turning to `COc1cc(C)c(-c2cnc3c(c2)CN(c2nn4c(=O)ccnc4cc2C)CC3)cn1` [Compound 1-387, 7-(3-(6-methoxy-4-methylpyridin-3-yl)-7,8-dihydro-1,6-naphthyridin-6(5H)-yl)-8-methyl-4H-pyrimido[1,2-b] pyridazin-4-one], the Emax at 30 µM was found to be 92% and the EC50 stood at 0.046 µM.

For the compound `CC(=O)N1CC=C(c2cnc3c(c2)CN(c2nn4c(=O)ccnc4cc2C)CC3)CC1` [Compound 1-388, 7-(3-(1-acetyl-1,2,3,6-tetrahydropyridin-4-yl)-7,8-dihydro-1,6-naphthyridin-6(5H)-yl)-8-methyl-4H-pyrimido[1,2-b]pyridazin-4-one], the Emax at 30 µM worked out at 61% and the half-maximal effective concentration (EC50) is 1.28 µM.

As to `Cc1nc(-c2cnc3c(c2)CN(c2nn4c(=O)ccnc4cc2C)CC3)cs1` [Compound 1-389, 8-methyl-7-(3-(2-methylthiazol-4-yl)-7,8-dihydro-1,6-naphthyridin-6(5H)-yl)-4H-pyrimido[1,2-b] pyridazin-4-one], the maximal effect (Emax) at 30 µM turned out to be 63% and the EC50 stood at 0.271 µM.

`Cc1cc(-c2cnc3c(c2)CN(c2nn4c(=O)ccnc4cc2C)CC3)n(C)n1` [Compound 1-390, 7-(3-(1,3-dimethyl-1H-pyrazol-5-yl)-7,8-dihydro-1,6-naphthyridin-6(5H)-yl)-8-methyl-4H-pyrimido[1,2-b]pyridazin-4-one]: the Emax at 30 µM came out at 98% and the EC50 worked out at 0.486 µM.

With `Cc1cc2nccc(=O)n2nc1N1CCc2ncc(-c3ncc(C)n3C)cc2C1` [Compound 1-391, 7-(3-(1,5-dimethyl-1H-imidazol-2-yl)-7,8-dihydro-1,6-naphthyridin-6(5H)-yl)-8-methyl-4H-pyrimido[1,2-b]pyridazin-4-one], the Emax at 30 µM was 49%.

In the case of `Cc1cc2nccc(=O)n2nc1N1CCc2ncc(-c3cncn3C)cc2C1` [Compound 1-392, 8-methyl-7-(3-(1-methyl-1H-imidazol-5-yl)-7,8-dihydro-1,6-naphthyridin-6(5H)-yl)-4H-pyrimido[1,2-b] pyridazin-4-one], the maximum response (Emax) at 30 µM worked out at 105% and the EC50 came to 0.259 µM.

Consider `Cc1cc2nccc(=O)n2nc1N1CCc2ncc(-c3ncsc3C)cc2C1` [Compound 1-393, 8-methyl-7-(3-(5-methylthiazol-4-yl)-7,8-dihydro-1,6-naphthyridin-6(5H)-yl)-4H-pyrimido[1,2-b]pyridazin-4-one], for which the Emax at 30 µM is 83% and the concentration for a half-maximal effect (EC50) turned out to be 1.05 µM.

For `Cc1cscc1-c1cnc2c(c1)CN(c1nn3c(=O)ccnc3cc1C)CC2` [Compound 1-394, 8-methyl-7-(3-(4-methylthiophen-3-yl)-7,8-dihydro-1,6-naphthyridin-6(5H)-yl)-4H-pyrimido[1,2-b]pyridazin-4-one], the Emax at 30 µM stood at 86% and the EC50 stood at 0.074 µM.

As for `Cc1cc2nccc(=O)n2nc1N1CCc2ncc(-c3scnc3C)cc2C1` [Compound 1-395, 8-methyl-7-(3-(4-methylthiazol-5-yl)-7,8-dihydro-1,6-naphthyridin-6(5H)-yl)-4H-pyrimido[1,2-b]pyridazin-4-one], the Emax at 30 µM worked out at 90% and the EC50 amounted to 0.138 µM.

Consider `Cc1cc2nccc(=O)n2nc1N1CCc2ncc(-c3ccnn3C(C)C)cc2C1` [Compound 1-396, 7-(3-(1-isopropyl-1H-pyrazol-5-yl)-7,8-dihydro-1,6-naphthyridin-6(5H)-yl)-8-methyl-4H-pyrimido[1,2-b]pyridazin-4-one], for which the Emax at 30 µM worked out at 60% and the half-maximal effective concentration (EC50) was 0.597 µM.

`Cc1ncc(-c2cnc3c(c2)CN(c2nn4c(=O)ccnc4cc2C)CC3)o1` [Compound 1-397, 8-methyl-7-(3-(2-methyloxazol-5-yl)-7,8-dihydro-1,6-naphthyridin-6(5H)-yl)-4H-pyrimido[1,2-b]pyridazin-4-one]: the Emax at 30 µM was determined as 87% and the EC50 stood at 1.08 µM.

Regarding `Cc1cc(F)ncc1-c1cnc2c(c1)CN(c1nn3c(=O)ccnc3cc1C)CC2` [Compound 1-398, 7-(3-(6-fluoro-4-methylpyridin-3-yl)-7,8-dihydro-1,6-naphthyridin-6(5H)-yl)-8-methyl-4H-pyrimido[1,2-b]pyridazin-4-one], the Emax at 30 µM stood at 93% and the EC50 amounted to 0.169 µM.

Turning to `Cc1cc2nccc(=O)n2nc1N1CCc2ncc(-c3cncc(F)c3C)cc2C1` [Compound 1-399, 7-(3-(5-fluoro-4-methylpyridin-3-yl)-7,8-dihydro-1,6-naphthyridin-6(5H)-yl)-8-methyl-4H-pyrimido[1,2-b]pyridazin-4-one], the Emax at 30 µM was determined as 63% and the EC50 is 0.13 µM.

Take `Cc1cc(C(F)(F)F)ncc1-c1cnc2c(c1)CN(c1nn3c(=O)ccnc3cc1C)CC2` [Compound 1-400, 8-methyl-7-(3-(4-methyl-6-(trifluoromethyl)pyridin-3-yl)-7,8-dihydro-1,6-naphthyridin-6(5H)-yl)-4H-pyrimido[1,2-b] pyridazin-4-one]: the maximal effect (Emax) at 30 µM was determined as 95% and the EC50 turned out to be 0.433 µM.

In the case of `Cc1cc2nccc(=O)n2nc1N1CCc2ncc(-c3c(C)ccnc3C)cc2C1` [Compound 1-401, 7-(3-(2,4-dimethylpyridin-3-yl)-7,8-dihydro-1,6-naphthyridin-6(5H)-yl)-8-methyl-4H-pyrimido [1,2-b]pyridazin-4-one], the Emax at 30 µM worked out at 39%.

`Cc1ccncc1-c1cnc2c(c1)CN(c1nn3c(=O)ccnc3cc1C)CC2` [Compound 1-403, 8-methyl-7-(3-(4-methylpyridin-3-yl)-7,8-dihydro-1,6-naphthyridin-6(5H)-yl)-4H-pyrimido[1,2-b] pyridazin-4-one]: the Emax at 30 µM turned out to be 86% and the 50% effective concentration (EC50) worked out at 0.112 µM.

Consider `Cc1cc(N)ncc1-c1cnc2c(c1)CN(c1nn3c(=O)ccnc3cc1C)CC2` [Compound 1-404, 7-(3-(6-amino-4-methylpyridin-3-yl)-7,8-dihydro-1,6-naphthyridin-6(5H)-yl)-8-methyl-4H-pyrimido[1,2-b]pyridazin-4-one], for which the Emax at 30 µM is 97% and the EC50 turned out to be 0.165 µM.

Regarding `Cc1cc(C)c(-c2cnc3c(c2)CN(c2nn4c(=O)ccnc4cc2C)CC3)cn1` [Compound 1-405, 7-(3-(4,6-dimethylpyridin-3-yl)-7,8-dihydro-1,6-naphthyridin-6(5H)-yl)-8-methyl-4H-pyrimido [1,2-b]pyridazin-4-one], the Emax at 30 µM was 61% and the EC50 is 0.259 µM.

Take `Cc1cc(C(=O)O)ncc1-c1cnc2c(c1)CN(c1nn3c(=O)ccnc3cc1C)CC2` [Compound 1-406, 4-methyl-5-(6-(8-methyl-4-oxo-4H-pyrimido[1,2-b]pyridazin-7-yl)-5,6,7,8-tetrahydro-1,6-naphthyridin-3-yl)picolinic acid]: the Emax at 30 µM is 86% and the EC50 is 3.97 µM.

In the case of `Cc1cc(N(C)C)ncc1-c1cnc2c(c1)CN(c1nn3c(=O)ccnc3cc1C)CC2` [Compound 1-407, 7-(3-(6-(dimethylamino)-4-methylpyridin-3-yl)-7,8-dihydro-1,6-naphthyridin-6(5H)-yl)-8-methyl-4H-pyrimido [1,2-b]pyridazin-4-one], the Emax at 30 µM came out at 92% and the EC50 turned out to be 0.132 µM.

With `Cc1cc2nccc(=O)n2nc1N1CCc2ncc(-c3cnn(C)c3C)cc2C1` [Compound 1-408, 7-(3-(1,5-dimethyl-1H-pyrazol-4-yl)-7,8-dihydro-1,6-naphthyridin-6(5H)-yl)-8-methyl-4H-pyrimido[1,2-b]pyridazin-4-one], the Emax at 30 µM came to 90% and the EC50 is 0.257 µM.

With `Cc1cc2nccc(=O)n2nc1N1CCc2ncc(-c3sccc3C)cc2C1` [Compound 1-409, 8-methyl-7-(3-(3-methylthiophen-2-yl)-7,8-dihydro-1,6-naphthyridin-6(5H)-yl)-4H-pyrimido[1,2-b]pyridazin-4-one], the Emax at 30 µM worked out at 95% and the EC50 is 0.048 µM.

For the compound `Cc1cc2nccc(=O)n2nc1N1CCc2ncc(-c3ccsc3C#N)cc2C1` [Compound 1-410, 3-(6-(8-methyl-4-oxo-4H-pyrimido[1,2-b]pyridazin-7-yl)-5,6,7,8-tetrahydro-1,6-naphthyridin-3-yl)thiophene-2-carbonitrile], the maximal response (Emax) at 30 µM worked out at 82% and the EC50 was 0.178 µM.

In the case of `Cc1cc2nccc(=O)n2nc1N1CCc2ncc(-c3cn(C)nc3C(F)(F)F)cc2C1` [Compound 1-411, 8-methyl-7-(3-(1-methyl-3-(trifluoromethyl)-1H-pyrazol-4-yl)-7,8-dihydro-1,6-naphthyridin-6(5H)-yl)-4H-pyrimido[1,2-b]pyridazin-4-one], the Emax at 30 µM was determined as 82% and the half-maximal effective concentration (EC50) stood at 1.24 µM.

Take `Cc1cc2nccc(=O)n2nc1N1CCc2ncc(-c3cn(C)nc3C(F)F)cc2C1` [Compound 1-412, 7-(3-(3-(difluoromethyl)-1-methyl-1H-pyrazol-4-yl)-7,8-dihydro-1,6-naphthyridin-6(5H)-yl)-8-methyl-4H-pyrimido [1,2-b]pyridazin-4-one]: the maximal effect (Emax) at 30 µM is 86% and the EC50 is 0.352 µM.

As a reminder, the Emax is the greatest response seen or fitted, relative to the assay's reference. The EC50 is the concentration needed to bring the measured effect to its halfway point.
